Columns and labels:
Settings in all cases: in vivo, po
[1] = test system: Rattus norvegicus; experiment: Total electrolytic excretion of sodium in urine of rats after peroral administration of 77.5 uM/Kg of drug; type: ADME, organism-based
[2] = test system: Rattus norvegicus; experiment: Tested for the diuretic activity by measuring the urinary volume after peroral administering 25.9 uM/Kg of drug in rats; type: ADME, organism-based, Urine
[3] = test system: Rattus norvegicus; experiment: Total electrolytic excretion of potassium in urine of rats after peroral administration of 77.5 uM/Kg of drug; type: ADME, organism-based
[4] = test system: Rattus norvegicus; experiment: Ratio of Total electrolytic excretion of sodium and potassium in urine of rats after peroral administration of 25.9 uM/Kg of drug; type: ADME, organism-based
[5] = test system: Rattus norvegicus; experiment: Total electrolytic excretion of potassium in urine of rats after peroral administration of 25.9 uM/Kg of drug; type: ADME, organism-based
[6] = test system: Rattus norvegicus; experiment: Total electrolytic excretion of chlorine in urine of rats after peroral administration of 25.9 uM/Kg of drug; type: ADME, organism-based
[7] = test system: Rattus norvegicus; experiment: Total electrolytic excretion of potassium in urine of rats after peroral administration of 259 uM/Kg of drug; type: ADME, organism-based
[8] = test system: Rattus norvegicus; experiment: Tested for the diuretic activity by measuring the urinary volume after peroral administering 77.5 uM/Kg of drug in rats; type: ADME, organism-based, Urine
[9] = test system: Rattus norvegicus; experiment: Ratio of Total electrolytic excretion of sodium and potassium in urine of rats after peroral administration of 259 uM/Kg of drug; type: ADME, organism-based
[10] = test system: Rattus norvegicus; experiment: Ratio of Total electrolytic excretion of sodium and potassium in urine of rats after peroral administration of 77.7 uM/Kg of drug; type: ADME, organism-based
[11] = test system: Rattus norvegicus; experiment: Total electrolytic excretion of chlorine in urine of rats after peroral administration of 259 uM/Kg of drug; type: ADME, organism-based
[12] = test system: Rattus norvegicus; experiment: Total electrolytic excretion of sodium in urine of rats after peroral administration of 259 uM/Kg of drug; type: ADME, organism-based
[13] = test system: Rattus norvegicus; experiment: Total electrolytic excretion of chlorine in urine of rats after peroral administration of 77.5 uM/Kg of drug; type: ADME, organism-based
[14] = test system: Rattus norvegicus; experiment: Total electrolytic excretion of sodium in urine of rats after peroral administration of 25.9 uM/Kg of drug; type: ADME, organism-based
[15] = test system: Rattus norvegicus; experiment: Tested for the diuretic activity by measuring the urinary volume after peroral administering 259 uM/Kg of drug in rats; type: ADME, organism-based, Urine
[16] = test system: Rattus norvegicus; experiment: Total electrolytic excretion of potassium in urine of rats after peroral administration of 86.9 uM/Kg of drug; type: ADME, organism-based
[17] = test system: Rattus norvegicus; experiment: Total electrolytic excretion of sodium in urine of rats after peroral administration of 28.9 uM/Kg of drug; type: ADME, organism-based
[18] = test system: Rattus norvegicus; experiment: Total electrolytic excretion of sodium in urine of rats after peroral administration of 289 uM/Kg of drug; type: ADME, organism-based
[19] = test system: Rattus norvegicus; experiment: Total electrolytic excretion of potassium in urine of rats after peroral administration of 289 uM/Kg of drug; type: ADME, organism-based
[20] = test system: Rattus norvegicus; experiment: Total electrolytic excretion of chlorine in urine of rats after peroral administration of 86.9 uM/Kg of drug; type: ADME, organism-based
[21] = test system: Rattus norvegicus; experiment: Ratio of Total electrolytic excretion of sodium and potassium in urine of rats after peroral administration of 28.9 uM/Kg of drug; type: ADME, organism-based
[22] = test system: Rattus norvegicus; experiment: Total electrolytic excretion of potassium in urine of rats after peroral administration of 28.9 uM/Kg of drug; type: ADME, organism-based
[23] = test system: Rattus norvegicus; experiment: Total electrolytic excretion of sodium in urine of rats after peroral administration of 86.9 uM/Kg of drug; type: ADME, organism-based
[24] = test system: Rattus norvegicus; experiment: Total electrolytic excretion of chlorine in urine of rats after peroral administration of 289 uM/Kg of drug; type: ADME, organism-based
[25] = test system: Rattus norvegicus; experiment: Tested for the diuretic activity by measuring the urinary volume after peroral administering 86.9 uM/Kg of drug in rats; type: ADME, organism-based, Urine
[26] = test system: Rattus norvegicus; experiment: Total electrolytic excretion of chlorine in urine of rats after peroral administration of 28.9 uM/Kg of drug; type: ADME, organism-based
[27] = test system: Rattus norvegicus; experiment: Tested for the diuretic activity by measuring the urinary volume after peroral administering 289 uM/Kg of drug in rats; type: ADME, organism-based, Urine
[28] = test system: Rattus norvegicus; experiment: Ratio of Total electrolytic excretion of sodium and potassium in urine of rats after peroral administration of 86.9 uM/Kg of drug; type: ADME, organism-based
[29] = test system: Rattus norvegicus; experiment: Tested for the diuretic activity by measuring the urinary volume after peroral administering 28.9 uM/Kg of drug in rats; type: ADME, organism-based, Urine
[30] = test system: Rattus norvegicus; experiment: Ratio of Total electrolytic excretion of sodium and potassium in urine of rats after peroral administration of uM/Kg of drug; type: ADME, organism-based

In the case of `C1CCCC(/N=C(/NC2CCCCCCC2)N2CCOCC2)CCC1`, the “Excretion Na+” value [1] is reported as 1.89 m equiv, the V [2] is reported as 8.7 mL and the “Excretion K+” value [3] is reported as 0.27 m equiv. The Ratio [4] was 5.5, the “Excretion K+” value [5] was 0.26 m equiv and the “Excretion Cl-” value [6] was 1.5 m equiv. For the same molecule, the “Excretion K+” value [7] was 0.16 m equiv, the V [8] was 11.8 mL and the Ratio [9] was 7.5. For the same molecule, the Ratio [10] was 7.1, the “Excretion Cl-” value [11] was 1.05 m equiv and the “Excretion Na+” value [12] was 1.17 m equiv. For the same molecule, the “Excretion Cl-” value [13] was 1.99 m equiv, the “Excretion Na+” value [14] was 1.45 m equiv and the V [15] was 5 mL.
For `C1CCC(/N=C(/NC2CCCCC2)N2CCSCC2)CC1`, the “Excretion K+” value [16] was 0.32 m equiv, the “Excretion Na+” value [17] was 1.32 m equiv and the “Excretion Na+” value [18] was 1.59 m equiv. For the same molecule, the “Excretion K+” value [19] was 0.27 m equiv, the “Excretion Cl-” value [20] was 1.78 m equiv and the Ratio [21] was 3.7. For the same molecule, the “Excretion K+” value [22] was 0.36 m equiv, the “Excretion Na+” value [23] was 1.81 m equiv and the “Excretion Cl-” value [24] was 1.51 m equiv. The V [25] was 11.3 mL, the “Excretion Cl-” value [26] was 1.49 m equiv and the V [27] was 9.2 mL. It also gave a Ratio [28] of 5.7, a V [29] of 9.1 mL and a Ratio [30] of 5.5.
